Consider 14 compounds from patent US11834401B2, “Treating and preventing diseases by modulating cell mechanics” (THE JOHNS HOPKINS UNIVERSITY, priority 2013, dated 2023).

Data set [1] has as its system NLS-tdTomato expressing Dictyostelium cells. The conditions noted are these: for CIMPAQ hit category, kinase inhibitor collection / CIMPAQ hit category, ion channel collection: BIOMOL pilot screen; for CIMPAQ hit category, kinase inhibitor collection: 84 protein kinase inhibitors; for CIMPAQ hit category, ion channel collection: 70 ion channel inhibitors. The procedure:
NLS-tdTomato expressing Dictyostelium cells were challenged with […] compounds from the ChemBridge Divert-SET library and imaged over three days. Raw data was segmented by CIMPAQ, a designed analytical platform, which rank ordered hits based on their cytokinesis or mitotic inhibitory activity, or lethality. Hits were confirmed through a dose-dependent secondary screening.
Ax3::NLS-tdTomato cells were plated on 384-well COP plates with a MicroFloSelect microplate dispenser (BioTek, Winooski, Vt.) at volumes of 80 μl with a cell concentration of 1000 cells/ml for the 24- and 48-hr time points and at the same volume with a cell concentration of 220 cells/ml for the 72-hr time point. Each plate contained four rows of untreated cells with 0.2% DMSO. For the remaining wells, […] of each small molecule maintained at the Johns Hopkins ChemCORE facility, was added, with a final DMSO concentration of 0.2%. Almost half of the ChemBridge Divert-SET library, which is a 50,000 compound chemical diversity library, was screened over a three-day period on a Becton Dickinson Pathway 855 Bioimager System using a 20× objective (NA 0.75). Each image consisted of a montage of four images collected around the center of the well, resulting in a total size of 1344×1024 pixels per image.
Secondary chemical screening was carried out in quadruplicate, with identical culturing conditions as to the primary screen. 14 mM stocks of each compounds dissolved in 100% DMSO were diluted to the following final concentrations: […], 3.5 nM, 35 nM, 350 nM, 3.5 μM, and 35 μM.
Raw image files from both the primary and secondary screening were processed through CIMPAQ (FIGS. 9E and 9F). The single wavelength fluorescence images were converted from 16-bit format to 8-bit format. The MATLAB Image Processing Toolbox was utilized to segment the images in order to identify the nuclei and cytoplasm. The number of nuclei within each segmented cell was quantified to produce a histogram of nuclei per cell for each image (FIG. 9G). All segmented cells that were coincident with the image edge were disregarded.
Image analysis using CIMPAQ: From the histogram of nuclei per cell count, the ratio of the number of multinucleate cells to the number of mononucleate cells and the ratio of the number of binucleate cells to the number of mononucleate cells were computed. Multinucleate cells are defined as cells that contain >2 nuclei. The distribution of both ratios across multiple wells were simultaneously visualized using a scatter plot, with the ratio of multinucleate cells to mononucleate cells plotted on the x-axis and the ratio of binucleate cells to mononucleate cells plotted on the y-axis (FIGS. 9H and 9I). Other information such as the average number of nuclei per cell, the mean nuclear area, and the normalized histogram with respect to total cell number were also computed.
Hit identification using CIMPAQ: Compounds that generate an increase in the number of multinucleate (>2 nuclei/cell) cells are considered cytokinesis inhibitors. Because nearly all cultured cells, including Dictyostelium, have a low background (typically <5% for WT) of non-mononucleate cells, CIMPAQ spreads the data for each sample by determining the ratio (bi:mono) of binucleate (2 nuclei/cell) to mononucleate cells and the ratio (multi:mono) of multinucleate (>2 nuclei/cell) to mononucleate cells. These two ratios then define a set of Cartesian coordinates, describing the effect of each compound on a given cell-line. The coordinates for each compound are plotted on a two-dimensional graph. CIMPAQ fits the control data to a two-dimensional Gaussian distribution (FIG. 9H) and determines the contour lines for two standard deviations (2SD), 3SD, etc. from the control mean (FIG. 9I).
Hit compounds are rank-ordered based on how many SDs away they are from the untreated wells.

Data set [2] addresses T1, myosin II (Dictyostelium discoideum, UniProt P08799).
T1 construct: expressed in transfected cells; host or cells: Dictyostelium discoideum myoII null cells rescued with GFP-myosin II
Nature of the data set: Myosin II cortical localization by SIM, TIRF and confocal imaging. It counts as cell-based. As to conditions: 500 nM time course. Here is the method:
(§1) Micropipette aspiration was used for cortical tension and creep response measurements. Confocal imaging was performed on a Zeiss 510 Meta with a 63× (numerical aperture [NA] 1.4) objective (Carl Zeiss, Jena, Germany). Epifluorescence and TIRF imaging was performed in a 22° C. temperature controlled room with an Olympus IX81 microscope using a 40× (NA 1.3) or 60× (NA 1.49) objective and a 1.4× optovar (Olympus, Center Valley, Pa.), as previously described. Image analysis was performed with ImageJ (rsb.info.nih.gov/ij).
Imaging conditions during primary screen are described above. All other image analysis was performed as previously described (Kee Y S, et al., 2012). Cells were transferred from Petri dishes (with 0.1% DMSO incubation in growth media of 4 hrs) to imaging chambers and allowed to adhere for 20 min in growth media with 0.1% DMSO. After the cells adhered, the growth media was replaced with 2-(N-morpholino)ethanesulfonic acid (MES) starvation buffer (50 mM MES, pH 6.8, 2 mM MgCl2, 0.2 mM CaCl2) with 0.1% DMS. Confocal imaging was performed on aZeiss 510 Meta with a 63× (numerical aperture [NA] 1.4) objective (Carl Zeiss, Jena, Germany). Epifluorescence and TIR imaging was performed in a 22° C. temperature controlled room with an Olympus IX81 microscope using a 40× (NA 1.3) or 60× (NA […]) objective and a 1.4× optovar (Olympus, Center Valley, Pa.), as previously described. Image analysis was performed with ImageJ (rsb.info.nih.gov/ij). Many data sets were independently analyzed by multiple investigators.

Data set [3] has as its system Dictyostelium cells. Put plainly: Micropipette aspiration cortical tension, Dictyostelium. In kind it is cell-based, Dictyostelium discoideum. The conditions noted are these: acute treatment; 700 μM printed. Here is the method: as §1
The instrumental and experimental setups have been previously described (Effler J C, et al., 2006; Kee Y-S, et al., 2013). Micropipette aspiration assays were all carried out in growth media with 0.1% DMSO. For cortical tension measurements of Dictyostelium cells, pressure was applied to the cell cortex with a micropipette (2-3 m radius, Rp) to the equilibrium pressure (ΔP) where the length of the cell inside the pipette (Lp) was equal to Rp. The effective cortical tension (Teff) was calculated by applying the Young-Laplace equation: ΔP=2Teff(1/Rp-1/Rc), where Rc is the radius of the cell and ΔP is the equilibrium pressure when Lp=Rp (Derganc J, et al., 2000; Octtaviani E, et al., 2006). For creep tests on mammalian strains, a constant aspiration stress was applied over 60 s. The micropipette radius was 3.5-4.5 m. For quantification, the Lp/Rp ratio values was measured every two seconds and plotted as a function of time. A10.7 and HEK293 cells could only be aspirated at a low pressure range (0.15 nN/μm^2), while HPDE, ASPC-1, and HL-60 cells could be aspirated at higher pressure ranges (0.25 nN/μm^2) because they were stiffer.

A short description of data set [4]: Degradation/stability of carbamate-7 in solvent (TLC, HPLC). In kind it is physicochemical. The conditions noted are these: standing in methanol. The procedure: Upon standing in methanol, the product obtained above degraded within 2.5 hr, as determined by TLC analysis. Degradation appeared more rapid in DMSO, the solvent used to generate stock solutions for biological evaluation. Thus, carbamate-7 obtained either by chemical synthesis or commercially from ChemBridge was dissolved in DMSO (1 mg/mL), and a time course to study its degradation was initiated immediately upon solvation. To stop the degradation reaction such that the product distribution could be captured at early time points, aliquots (40 μL) were rapidly frozen into Eppendorf tubes incubating on dry ice. HPLC analysis on a Beckman Gold Nouveau HPLC System was performed on each sample immediately upon thawing. Carbamate-7 (5180622) degradation products were eluted at 3 mL/min from a Grace Alltima C18 column (length=53 mm, ID=7 mm, particle size=3 μM) over a linear gradient (5:95 acetonitrile/100 mM NH4OAc (pH 6.8) to 100% 100 mM NH4OAc (pH 6.8) over 15 min).
Comparison of the urea product to authentic N,N′-Bis(3,4-dichlorophenyl) urea was performed using a linear gradient (5:95 acetonitrile/100 mM NH4OAc (pH 6.8) to 100% 100 mM NH4OAc (pH 6.8) over 5 min). […] Confirmation of the urea was further confirmed via characteristic fragmentation patterns determined using product ion (MS-MS) analysis monitoring in negative ion mode (FIG. 11C).

Data set [5] deals with EGF receptor tyrosine kinase (Homo sapiens, UniProt P00533). The conditions noted are these: cited from earlier work.

A value given as a limit tells only on which side of the number the result lay.

Sequence of EGF receptor tyrosine kinase (P00533 25-1210): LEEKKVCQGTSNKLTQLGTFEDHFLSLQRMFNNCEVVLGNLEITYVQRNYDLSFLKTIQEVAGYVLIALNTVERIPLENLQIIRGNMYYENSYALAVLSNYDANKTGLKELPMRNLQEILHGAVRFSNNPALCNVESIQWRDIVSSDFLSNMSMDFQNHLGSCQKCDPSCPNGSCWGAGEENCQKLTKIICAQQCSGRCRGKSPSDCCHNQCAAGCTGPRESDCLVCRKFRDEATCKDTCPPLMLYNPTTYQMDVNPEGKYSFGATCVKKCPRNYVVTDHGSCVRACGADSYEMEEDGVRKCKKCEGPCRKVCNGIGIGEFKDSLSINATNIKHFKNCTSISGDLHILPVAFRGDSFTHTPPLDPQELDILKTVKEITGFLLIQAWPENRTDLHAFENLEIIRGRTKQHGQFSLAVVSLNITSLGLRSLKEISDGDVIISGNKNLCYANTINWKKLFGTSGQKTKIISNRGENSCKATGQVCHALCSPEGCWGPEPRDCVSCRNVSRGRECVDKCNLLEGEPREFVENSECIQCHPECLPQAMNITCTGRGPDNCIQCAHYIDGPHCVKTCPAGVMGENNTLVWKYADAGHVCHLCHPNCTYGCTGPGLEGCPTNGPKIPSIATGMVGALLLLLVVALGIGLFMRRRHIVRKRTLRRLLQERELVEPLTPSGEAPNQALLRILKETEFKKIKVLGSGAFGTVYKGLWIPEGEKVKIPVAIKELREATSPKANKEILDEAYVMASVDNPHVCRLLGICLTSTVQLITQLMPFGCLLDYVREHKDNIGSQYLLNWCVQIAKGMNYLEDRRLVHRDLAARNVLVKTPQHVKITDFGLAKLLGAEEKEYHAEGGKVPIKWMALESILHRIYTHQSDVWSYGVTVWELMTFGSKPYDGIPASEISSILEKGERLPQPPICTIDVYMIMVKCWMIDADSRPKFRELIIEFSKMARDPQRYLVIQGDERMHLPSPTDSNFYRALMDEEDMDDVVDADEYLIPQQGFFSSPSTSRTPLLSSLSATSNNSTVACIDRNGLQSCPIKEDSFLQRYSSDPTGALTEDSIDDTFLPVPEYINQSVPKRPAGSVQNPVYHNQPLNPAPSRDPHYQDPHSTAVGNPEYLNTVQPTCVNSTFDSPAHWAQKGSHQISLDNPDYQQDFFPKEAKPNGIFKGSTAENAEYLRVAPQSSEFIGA
T1 sequence (P08799 whole entry): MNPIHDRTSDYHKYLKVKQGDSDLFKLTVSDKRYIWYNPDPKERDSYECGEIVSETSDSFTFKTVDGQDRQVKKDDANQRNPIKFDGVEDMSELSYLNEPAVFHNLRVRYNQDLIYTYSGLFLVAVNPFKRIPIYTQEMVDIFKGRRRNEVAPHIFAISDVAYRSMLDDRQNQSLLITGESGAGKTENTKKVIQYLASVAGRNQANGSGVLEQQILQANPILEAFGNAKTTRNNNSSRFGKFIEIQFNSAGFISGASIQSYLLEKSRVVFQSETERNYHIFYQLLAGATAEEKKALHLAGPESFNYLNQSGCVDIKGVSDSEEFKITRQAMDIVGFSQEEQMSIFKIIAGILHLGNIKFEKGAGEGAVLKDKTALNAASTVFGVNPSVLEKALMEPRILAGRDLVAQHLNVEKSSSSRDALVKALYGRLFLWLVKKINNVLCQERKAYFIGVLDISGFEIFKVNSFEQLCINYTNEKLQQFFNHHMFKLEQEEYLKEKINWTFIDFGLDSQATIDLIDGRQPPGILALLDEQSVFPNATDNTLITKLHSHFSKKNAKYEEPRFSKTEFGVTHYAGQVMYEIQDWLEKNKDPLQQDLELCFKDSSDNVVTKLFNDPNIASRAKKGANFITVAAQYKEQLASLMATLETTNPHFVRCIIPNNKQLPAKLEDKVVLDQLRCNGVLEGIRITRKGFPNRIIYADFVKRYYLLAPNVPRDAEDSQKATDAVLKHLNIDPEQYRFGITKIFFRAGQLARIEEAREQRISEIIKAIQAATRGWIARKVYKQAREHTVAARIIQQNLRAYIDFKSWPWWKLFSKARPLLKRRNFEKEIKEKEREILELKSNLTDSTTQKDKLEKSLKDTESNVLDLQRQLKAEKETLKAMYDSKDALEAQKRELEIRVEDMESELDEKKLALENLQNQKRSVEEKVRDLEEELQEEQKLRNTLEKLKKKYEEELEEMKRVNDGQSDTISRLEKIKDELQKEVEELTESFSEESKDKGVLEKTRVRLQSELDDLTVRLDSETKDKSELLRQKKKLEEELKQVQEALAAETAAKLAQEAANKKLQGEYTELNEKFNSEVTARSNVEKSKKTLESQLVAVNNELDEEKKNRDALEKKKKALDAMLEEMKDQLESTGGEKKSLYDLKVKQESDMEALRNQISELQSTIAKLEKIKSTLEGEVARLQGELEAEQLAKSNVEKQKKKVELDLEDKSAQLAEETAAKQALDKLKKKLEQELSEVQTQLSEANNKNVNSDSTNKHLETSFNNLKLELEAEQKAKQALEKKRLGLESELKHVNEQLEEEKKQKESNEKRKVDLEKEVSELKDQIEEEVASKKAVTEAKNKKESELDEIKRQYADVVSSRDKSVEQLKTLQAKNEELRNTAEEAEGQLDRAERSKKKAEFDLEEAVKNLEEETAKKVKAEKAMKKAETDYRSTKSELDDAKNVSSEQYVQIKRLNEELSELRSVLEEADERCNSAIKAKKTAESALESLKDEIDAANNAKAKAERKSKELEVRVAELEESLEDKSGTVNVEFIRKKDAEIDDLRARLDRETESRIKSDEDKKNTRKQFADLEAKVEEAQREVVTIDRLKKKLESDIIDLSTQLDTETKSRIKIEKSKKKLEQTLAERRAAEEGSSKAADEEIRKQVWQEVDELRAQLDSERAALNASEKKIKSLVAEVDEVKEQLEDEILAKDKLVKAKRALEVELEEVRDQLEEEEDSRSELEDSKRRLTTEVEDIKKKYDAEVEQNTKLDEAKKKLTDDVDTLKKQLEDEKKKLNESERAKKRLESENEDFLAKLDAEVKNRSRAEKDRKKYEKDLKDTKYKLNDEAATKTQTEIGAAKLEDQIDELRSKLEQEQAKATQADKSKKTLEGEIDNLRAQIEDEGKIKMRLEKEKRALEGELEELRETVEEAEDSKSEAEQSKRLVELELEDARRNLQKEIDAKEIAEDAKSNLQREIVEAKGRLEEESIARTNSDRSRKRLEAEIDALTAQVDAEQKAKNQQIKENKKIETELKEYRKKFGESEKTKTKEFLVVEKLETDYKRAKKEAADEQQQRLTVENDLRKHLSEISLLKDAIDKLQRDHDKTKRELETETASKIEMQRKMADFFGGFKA

On to `CCCCCCCCCCCCCCCC(=O)OC(CC(=O)O)C[N+](C)(C)C.[Cl-]` (racemic) [Palmitoyl-DL-carnitine Cl], for which, in data set [1], the “CIMPAQ hit category, kinase inhibitor collection” value was “Lethal at 10 μM”. With `O=C(O)c1cc(NCc2cc(O)ccc2O)ccc1O` [2-Hydroxy-5-(2,5-dihydroxybenzylamino) benzoic acid], in data set [1], the “CIMPAQ hit category, kinase inhibitor collection” value was “Lethal at 10 μM”. Take `COC(=O)Nc1nc2ccc(C(=O)c3cccs3)cc2[nH]1` [nocodazole]: in data set [1], the “identification as early mitotic inhibitor (average nuclear area greater than 28 pixels)” value is “reliably identified”. Turning to `Cc1ccc(-c2nn(C(C)(C)C)c3ncnc(N)c23)cc1` [PP1], the “CIMPAQ hit category, kinase inhibitor collection” value in data set [1] is on record as “Lethal at 5 μM”. With `O=C(Nc1ccc(Cl)c(Cl)c1)Nc1ccc(Cl)c(Cl)c1` [urea, N,N′-bis(3,4-dichlorophenyl)urea], the “changes in myosin II cortical distribution (TIRF)” value in data set [2] is reported as “Neither 3,4-DCA nor the urea result in changes in myosin II cortical distribution”.

In the case of `CC(=O)c1ccc(OC(=O)Nc2ccc(Cl)c(Cl)c2)cc1` [carbamate-7, 4-acetylphenyl-(3,4-dichlorophenyl) carbamate], the “increase in cortical tension” value in data set [3] is 1.4 fold. In addition, in data set [4], the time to degradation is at most 2.5 h. As to `CNc1ccc2oc(C[C@H]3O[C@@]4(CC[C@H]3C)O[C@H]([C@H](C)C(=O)c3ccc[nH]3)[C@H](C)C[C@H]4C)nc2c1C(=O)O` [Antibiotic A-23187], the “CIMPAQ hit category, ion channel collection” value in data set [1] is “Lethal at 5 μM”. On to `N#CC(=Cc1ccc2[nH]ccc2c1)C(N)=C(C#N)C#N` [AG-370], for which the “CIMPAQ hit category, kinase inhibitor collection” value in data set [1] is “Lethal at 5 μM”. Still for that read-out and setting: the same measure for `CC(C)(C)c1cc(C=C(C#N)C#N)cc(C(C)(C)C)c1O` [Tyrphostin 9]: “Lethal at 5 μM”. As for `COc1cccc(-c2cc(=O)c3ccccc3o2)c1N` [PD-98059], in data set [1], the “CIMPAQ hit category, kinase inhibitor collection” value was “Lethal at 5 μM”. In the case of `COc1ccc(CCCOC(Cn2ccnc2)c2ccc(OC)cc2)cc1` (stereo not drawn) [SKF-96365], in data set [1], the “CIMPAQ hit category, ion channel collection” value is on record as “Lethal at 5 μM”. For `C/C(CCc1ccccc1)=N\Nc1ccc([N+](=O)[O-])cc1` [4-phenyl-2-butanone (4-nitrophenyl) hydrazone], the cell division result in data set [1] (Dictyostelium Drug Discovery Platform (3DP)) was “inhibit cell division”. For `CC(C)COCC(CN(Cc1ccccc1)c1ccccc1)N1CCCC1` (stereo not drawn) [Bepridil], in data set [1], the “CIMPAQ hit category, ion channel collection” value is given as “Lethal at 5 μM”. As to `COC(=O)/C=C/c1cc(O)ccc1O` [Erbstatin analog], in data set [5], the “known IC50” value is given as “inhibitor; known IC50 (0.5 μg/ml”.
